Reference: patent US20130137728A1, “Compositions and Methods for the Treatment of Degenerative Diseases” (MUSC Foundation For Research And Development, priority 2010, published 2013)
Entries after “also recorded” stand apart in the source; their conditions may differ. Non-standard residues stand in square brackets, D forms with d. Residues, ends and D or L forms follow the SMILES beside them. Nle = CCCC[C@H](N)C(=O)O

Legend:
[1] = test system: 661W cells; experiment: Calcium-induced mitochondrial damage assay (IBMX, OCR on Seahorse XF24); assay type: cell-based, mouse; conditions: pretreatment with 1 μM for 1 h prior to addition of IBMX
Description: 32. FIG. 21. Secondary screening of neuroprotective agents discovered from library screening. The 661W cells were pretreated for 1 h with lead compounds, CB10-CB12 (1 μM), prior to treatment with 600 μM IBMX. The basal and uncoupled OCR rates were measured.
(§1) 257. As shown in FIG. 1 and FIG. 2 below, compounds CB11, CB11a, CB11b, CB11c, CB11d and IBMX (see FIG. 1); compounds CB12, CB12a, CB12b, CB12c, CB12d and IBMX (see FIG. 2) were tested against the calcium-induced mitochondrial damage assay. IBMX is a membrane-permeable inhibitor of β-phosphodiesterase which results in a buildup of cGMP. An excess of cGMP increases the number of cGMP-gated cation channels in an open configuration, allowing an influx of Ca2+ into the cell, leading to mitochondrial damage and eventual cell death.
274. […] A higher stringency for hit selection than is commonly used was performed to avoid the less productive process of filtering through a large number of poor leads. It is notable that the complete ChemBridge library contains over 700,000 molecules that are searchable based on chemical structure, physicochemical properties, etc. To identify the active species present in the initial pool of 12 compounds were screened and then chemical similarity searches on the larger 700,000 member library was performed to identify other molecules that define pharmacophores. This strategy has more efficiently lead to agents that block retinal degeneration. Also, this strategy enabled quick identification of a small number of agents that that were moved into more sophisticated cellular and physiological models so as to better validate the mechanisms. For example, in the high-throughput screen a very toxic, non-specific calcium ionophore assay was used which gives a rather broad readout of cell “viability”. In the secondary assays the specificity and stringency were increased via use of more specific calcium stressor, 3-isobutyl-1-methylxanthine (IBMX) and a more relevant metabolic read-out, loss of respiratory capacity as measured from the attenuation of the uncoupled respiratory rate as measured with the Seahorse instrument. This assay format was used to evaluate the 12 initial lead compounds and are pleased to report that several of these agents do indeed protect against loss in respiratory capacity due to IBMX exposure.

[2] = Viability of stressor-treated cells by dye exclusion 24 h after treatment; assay type: cell-based; conditions: mouse; 661W cells; 1 μM A23187; incubated 24 h; ethidium bromide/acridine orange
Description: (§2) 28. FIG. 17. Calcium and oxidative stress attenuate mitochondrial capacity. Shown are 661W cell OCR responses to 1 μM FCCP after treatment with listed concentrations of (A) A23187 and (B) tBuOOH. In A OCR rates are given as pmol/min, in B the rates for each well have been normalized to the basal rates measured prior to FCCP (which standardizes comparisons between data measured on different days). 661W cells analyzed by XF24 were incubated for 24 h and viability determined using ethidium bromide/acridine orange. Images of cells treated with (C) 1 μM A23187 and (D) control represent 47% and >95% viability.
269. The cells were then returned to the incubator and analyzed for cell viability via dye exclusion 24 h after treatment (FIGS. 17C,D). […] In addition, the higher concentrations produced profound changes in metabolic phenotype as evidenced in the cell's responses to the uncoupler FFCP. […] In both cases, reduced OCR and ECAR values are predictive of cell death although at intermediate concentrations, where cell death is still occurring, the ECAR rates actually increase, particularly for tBuOOH treatments.

[3] = test system: 661W cells; experiment: XF24 assay of stressor effects on respiratory capacity (OCR, FCCP response); assay type: cell-based, mouse; conditions: for mitochondrial capacity measured from the FCCP response: 30 min after treatment; for respiratory / mitochondrial capacity (FCCP-uncoupled OCR): IBMX 1.0 mM in FIG. 19
Description: as §2
30. FIG. 19. Mild calcium or oxidative stress reduces metabolic capacity in a photoreceptor cell line. (Calcium stress, left panel) 661W cells were treated with vehicle control (dark blue) or 1.0 mM IBMX (turquoise), followed by treatment with 1 μM FCCP. […] (Oxidant stress, right panel)
as §1
268. In preliminary experiments the energy metabolism of 661W cells using the XF24. 661W cells were analyzed and produce large amounts of lactic acid from glucose oxidation [Winkler B S, Starnes C A, Sauer M W, Firouzgan Z, Chen S C: Cultured retinal neuronal cells and Muller cells both show net production of lactate. Neurochem Int 2004, 45(2-3):311-320]. […] To examine whether the metabolic responses were predictive of cell death due to calcium or oxidant stress, the cells were exposed to calcium ionophore A23187 or the oxidant tert-butylhydroperoxide (tBuOOH) on the XF24 instrument for 30 min after which some of the treated cells were exposed to the protonophore FCCP to uncouple the mitochondrial membrane potential. The uncoupling attenuates ATP production and causes the mitochondria to dramatically increase oxygen consumption in an attempt to recover the lost ATP production capacity. The increase in oxygen consumption is a measure of the total mitochondrial capacity or reserve.
271. In preliminary studies, the direct oxidant tert-butylhydroperoxide (tBuOOH) was used to induce oxidant stress and the agent A23187, a calcium ionophore that binds to and carries Ca^2+ across cellular membranes, including mitochondrial membranes (Abbott, B. J., Fukuda, D. S., Dorman, D. E., Occolowitz, J. L., Debono, M., and Farhner, L. (1979) Antimicrob. Agents Chemother. 16(6), 808-812). Because A23187 rapidly increases intracellular and intra-mitochondrial calcium concentrations, it triggers Ca^2+-mediated programmed cell death (2. Orrenius, S., Zhivotovsky, B., and Nicotera, P. (2003) Nat. Rev. Mol. Cell. Biol. 4, 552-565; Hajnóczky, G., Davies, E., and Madesh, M. (2003) Biochem. Biophys. Res. Commun. 304, 445-454). One could argue that these two agents are akin to hammers rather than the more subtle, chronic oxidant and calcium stressors seen in degenerative processes. The XF24 assay was validated using two more physiologically relevant stressors. To induce calcium stress, 3-Isobutyl-1-methyl xanthine (IBMX), a non-selective phosphodiesterase (PDE) inhibitor was used (4. Zhang, X., Feng, Q., and Cote, R. H. (2005) Invest. Ophthalmol. Vis. Sci. 46(9), 3060-3066). Inhibition of PDEs causes increases in the intracellular cAMP and cGMP concentrations leading to slow activation cGMP-gated cation channels and an increase of Ca^2+ flux into the cell (5. Yarfitz, S., and Hurley, J. B. (1994) J. Biol. Chem. 269(20), 14329-14332; Koutalos, Y., and Yau, K.-W. (1996) Trends Neurosci. 19, 73-81). […]

[4] = test system: 661W cells; experiment: A23187 viability screen (MTS assay); assay type: cell-based, mouse; conditions: 50 μM, 1 μM A23187, 24 hours
Source text: 273. ChemBridge, Inc. has a large (>700,000) commercially available chemical library and a DIVERSet library was obtained, which is a subset of compounds selected for diversity and favorable drug-like properties. Because the DIVERSet library is much too large for lower throughput, high-content screens, single end-point assays amenable to high-throughput were developed and disclosed herein. […] A viability assay using treatments with A23187 to search for molecules in the library that protect from acute calcium toxicity was developed and disclosed herein. The concentration of A23187 was selected to give about 50% death and pools that protected against death were identified. The assay format was optimized and validated using calpeptin, a […] as a positive control. In brief, 661W cells were maintained in DMEM supplemented with 10% FBS. For the assay, 100 μL of 70,000 cells/mL cells were seeded into each well of 96 well plates using DMEM supplemented with 5% FBS. Cells were then allowed to grow to confluency for 48 hours. Library compounds were added in 2 μL containing 10 compounds at 20 μM each. Ionophore A23187 was then added in 1 μL for a final concentration of 1 μM and after 24 hours cells were analyzed for viability using the MTS assay according to the manufactures protocol (Promega CellTiter 96® Cat.#G5421). […]

[5] = test system: 661W cells; experiment: XF24 assay of stressor effects on respiratory capacity (OCR, FCCP response); assay type: cell-based, mouse; conditions: 661W cells treated with 1 μM IBMX for 20 min
[6] = test system: rd1 photoreceptors; experiment: rd1 mouse retinal organ culture assay (retina-RPE explants, photoreceptor row count); assay type: cell-based

CC(=O)Nc1cccc(NC(=O)c2sc(-c3cccnc3)nc2C)c1 [CB12c]
basal and maximal OCR (oxygen consumption rate) [1]: improvement of both basal and maximal OCR

CNc1ccc2oc(C[C@H]3O[C@@]4(CC[C@H]3C)O[C@H]([C@H](C)C(=O)c3ccc[nH]3)[C@H](C)C[C@H]4C)nc2c1C(=O)O [A23187]
viability at 24 h, 1 μM [2]: 47% | mitochondrial capacity measured from the FCCP response [3]: significant loss of mitochondrial capacity

O=C(CC1(O)C(=O)N(CCc2ccccc2)c2ccc(Cl)cc21)c1ccccn1 (stereo not shown) [CB11c]
basal and maximal OCR (oxygen consumption rate) [1]: improvement of both basal and maximal OCR

CCCC[C@@H](C=O)NC(=O)[C@H](CC(C)C)NC(=O)[C@H](CC(C)C)NC(C)=O [Calpain Inhibitor I] (Ac-Leu-Leu-[Nle]-aldehyde)
reversal of ionophore A23187 effects on viability [4]: able to reverse ionophore effects

Cc1nc(-c2cccnc2)sc1C(=O)Nc1ccc(C(N)=O)cc1 [CB12d]
basal and maximal OCR (oxygen consumption rate) [1]: improvement of both basal and maximal OCR

O=C(CC1(O)C(=O)N(CCc2ccccc2)c2ccccc21)c1cccnc1 (stereo not shown) [CB11b]
basal and maximal OCR (oxygen consumption rate) [1]: improvement of both basal and maximal OCR

CCOC(=O)CN1C(=O)C(O)(CC(=O)c2ccccn2)c2ccccc21 (stereo not shown) [CB11d]
basal and maximal OCR (oxygen consumption rate) [1]: improvement of both basal and maximal OCR

COC(=O)c1ccccc1NC(=O)c1sc(-c2cccnc2)nc1C [CB12b]
basal and maximal OCR (oxygen consumption rate) [1]: improvement of both basal and maximal OCR

C[n+]1ccc(-c2cc[n+](C)cc2)cc1 [paraquat]
effect on basal respiration rates [3]: little or no direct effect on basal respiration rates | respiratory / mitochondrial capacity (FCCP-uncoupled OCR) [3]: same types of loss in mitochondrial capacity

CC(C)(C)OO [tBuOOH, tert-butylhydroperoxide]
mitochondrial capacity measured from the FCCP response [3]: significant loss of mitochondrial capacity

CC(C)Cn1c(=O)n(C)c(=O)c2[nH]cnc21 [IBMX, 3-Isobutyl-1-methyl xanthine]
loss in metabolic capacity as measured from the FCCP response [5]: ~50% | effect on basal respiration rates [3]: little or no direct effect on basal respiration rates | basal and uncoupled OCR relative to untreated control ([3]; 600 μM IBMX): attenuates basal and uncoupled OCR | decrease in both basal and maximal (FCCP-uncoupled) respiratory capacity ([3]; 500-600 μM IBMX): ~50% | respiratory / mitochondrial capacity (FCCP-uncoupled OCR) [3]: diminished respiratory capacity compared to control; also recorded: same types of loss in mitochondrial capacity

CCCC[C@@H](C=O)NC(=O)[C@H](CC(C)C)NC(=O)OCc1ccccc1 [calpeptin]
rows of photoreceptors (average) ([6]; rd1 mouse organ cultures exposed to 1 mM from P11 to P21): 3.3±0.3 rows of photoreceptors | rows of photoreceptors remaining at P21 ([6]; rd1 retina-RPE sandwich cultures P10 through P21, quantified from images): about 3.5 rows
